Measured values published in publication PMC11255275, “Structural insights into the triple agonism at GLP-1R, GIPR and GCGR manifested by retatrutide” (Cell Discovery, 2024).
Changes are numbered by the printed parent chain. Where two headings read alike, the source gives them in different places.

Experiments:
[1] = biological target: T1, GIPR mutants (Homo sapiens, UniProt P48546, F127A); assay: cAMP accumulation, single-point mutated GIPR; assay type: cell-based; settings: GIPR F127(1.29b)A; HEK-293T, 40 min, TR-FRET; mean ± S.E.M., n at least 3
T1 construct: expressed in transfected cells; host or cells: HEK-293T
T1 sequence (P48546 22-466 F127A): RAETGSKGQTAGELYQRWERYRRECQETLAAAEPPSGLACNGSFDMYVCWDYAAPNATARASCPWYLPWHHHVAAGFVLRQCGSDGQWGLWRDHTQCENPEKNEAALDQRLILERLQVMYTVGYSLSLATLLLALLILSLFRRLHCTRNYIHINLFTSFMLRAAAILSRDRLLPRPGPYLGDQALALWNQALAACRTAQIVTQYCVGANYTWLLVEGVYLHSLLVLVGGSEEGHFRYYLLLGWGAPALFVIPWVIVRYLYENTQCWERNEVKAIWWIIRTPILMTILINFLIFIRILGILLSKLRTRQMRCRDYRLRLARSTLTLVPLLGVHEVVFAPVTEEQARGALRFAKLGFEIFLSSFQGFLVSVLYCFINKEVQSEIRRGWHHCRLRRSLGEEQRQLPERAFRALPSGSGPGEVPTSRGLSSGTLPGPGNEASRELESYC
Description: (§1) HEK-293T cells were maintained at 37°C in 5% CO2 incubator and seeded onto 6-well cell […]
(§2) culture plates before transfection. After overnight culture, the cells were transiently transfected […]
(§3) with various constructs using Lipofectamine 2000 transfection reagent (Invitrogen). After 24 h, […]
(§4) the transfected cells were seeded onto 384-microtiter plates at a density of 3,000 cells per well […]
(§5) in stimulation buffer (HBSS supplemented with 5 mM HEPES, 0.1% (w/v) casein and 0.5 mM […]
(§6) 3-isobutyl-1-methylxanthine). Different concentrations of retatrutide in stimulation buffer were […]
(§7) added, and the stimulation lasted for 40 min. The reaction was stopped by addition of cAMP […]
(§8) detection buffer containing Eu-cAMP tracer and ULight-anti-cAMP. Plates were then incubated for […]
(§9) 60 min at RT. Time-resolved FRET signals were measured at 620 nm and 665 nm, respectively, by […]
(§10) an EnVision multilabel plate reader (PerkinElmer). Data were analyzed in GraphPad PRISM 9.5 […]
(§11) and all values were normalized to that of the wild-type (WT).
(§12) Supplementary Fig. 5 Effects of receptor mutation on retatrutide-induced cAMP […]
(§13) accumulation. a-c, Signaling profiles of GLP-1R (a), GIPR (b) and GCGR (c) mutants. cAMP […]
(§14) accumulation was measured in wild-type (WT) and single-point mutated GLP-1R, GIPR or […]
(§15) GCGR expressing HEK-293T cells. cAMP levels were normalized to the maximum response […]
(§16) of the WT and dose-response curves were analyzed using a three-parameter logistic equation.
(§17) Data were generated and graphed as means ± S.E.M. of at least three independent experiments performed in quadruplicate.
(§18) (1 picture or pasted object on this page, not shown here)
(§19) Supplementary Ta b l e S 5 Effects of the ligand-binding pocket residue mutation on retatrutide- […]
(§20) induced cAMP signaling at GLP-1R, GIPR or GCGR. […]
(§21) cAMP levels were normalized to the maximum response of the wild-type (WT) and dose-response […]
(§22) curves were analyzed using a three-parameter logistic equation to obtain pEC50 and Emax values. The […]
(§23) experiments were carried out independently at least three times. Data shown are means ± S.E.M. One- […]
(§24) way ANOVA was used to determine statistical difference. N.D., values that could not be determined due […]
(§25) to incomplete curve fits. *P< 0.05, **P< 0.01, ***P< 0.001 and ****P<0.0001.

[2] = biological target: T2, GIPR mutants (Homo sapiens, UniProt P48546, R196Y); assay: cAMP accumulation, single-point mutated GIPR; assay type: cell-based; settings: GIPR R196(ECL1)Y
T2 construct: expressed in transfected cells; host or cells: HEK-293T
T2 sequence (P48546 22-466 R196Y): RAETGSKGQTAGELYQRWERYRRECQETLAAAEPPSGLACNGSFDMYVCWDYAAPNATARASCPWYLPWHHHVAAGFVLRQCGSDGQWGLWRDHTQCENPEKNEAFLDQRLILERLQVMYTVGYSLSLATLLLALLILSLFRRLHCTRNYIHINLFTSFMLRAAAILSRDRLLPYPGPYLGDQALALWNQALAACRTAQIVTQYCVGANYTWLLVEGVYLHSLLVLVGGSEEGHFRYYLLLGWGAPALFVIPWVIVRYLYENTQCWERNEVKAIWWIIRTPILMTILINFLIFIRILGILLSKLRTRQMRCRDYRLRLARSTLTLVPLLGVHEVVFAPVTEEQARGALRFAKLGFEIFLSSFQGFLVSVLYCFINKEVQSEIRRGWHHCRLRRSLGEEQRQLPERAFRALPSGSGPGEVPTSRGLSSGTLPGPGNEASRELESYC
Description: as §1, §2, §3, §4, §5, §6, §7, §8, §9, §10, §11, §12, §13, §14, §15, §16, §17, §18, §19, §20, §21, §22, §23, §24, §25

[3] = biological target: T3, GIPR mutants (Homo sapiens, UniProt P48546, E377A); assay: cAMP accumulation, single-point mutated GIPR; assay type: cell-based
T3 construct: expressed in transfected cells; host or cells: HEK-293T
T3 sequence (P48546 22-466 E377A): T2 sequence (P48546 22-466 R196Y) with Y175R, E356A
Description: as §1, §2, §3, §4, §5, §6, §7, §8, §9, §10, §11, §12, §13, §14, §15, §16, §17, §18, §19, §20, §21, §22, §23, §24, §25

[4] = tested on: C57/Bl6 diet-induced obese (DIO) mice; settings: cited from earlier work
Description: The most successful treatments currently available include glucagon-like peptide-1 (GLP-1) receptor agonists (GLP-1RAs), exemplified by semaglutide (approved in 2017, $19.9 billion sales in 2023)[3] and tirzepatide (approved in 2022, $5.3 billion sales in 2023)[4]. […] For humans, events were mild, such as 50 1 ascending (PMID: 4 months ...

[5] = cited from earlier work; for decrease in body weight (up to): single dose, ref Coskun T et al (supplement ref 17)
Description: For humans, events were mild, such as 50 1 ascending (PMID: 4 months ...

[6] = C57/Bl6 DIO mice, ref Coskun T et al (supplement ref 17)

Compound: CC[C@H](C)[C@H](NC(=O)[C@H](Cc1ccccc1)NC(=O)[C@H](C)NC(=O)C(C)(C)NC(=O)[C@H](CCC(N)=O)NC(=O)[C@H](C)NC(=O)[C@H](CCCCNC(=O)COCCOCCNC(=O)CC[C@H](NC(=O)CCCCCCCCCCCCCCCCCCC(=O)O)C(=O)O)NC(=O)[C@H](CCCCN)NC(=O)[C@H](CC(=O)O)NC(=O)[C@H](CC(C)C)NC(=O)[C@](C)(CC(C)C)NC(=O)[C@@H](NC(=O)[C@H](CO)NC(=O)[C@H](Cc1ccc(O)cc1)NC(=O)[C@H](CC(=O)O)NC(=O)[C@H](CO)NC(=O)[C@@H](NC(=O)[C@H](Cc1ccccc1)NC(=O)[C@@H](NC(=O)CNC(=O)[C@H](CCC(N)=O)NC(=O)C(C)(C)NC(=O)[C@@H](N)Cc1ccc(O)cc1)[C@@H](C)O)[C@@H](C)O)[C@@H](C)CC)C(=O)N[C@@H](CCC(=O)O)C(=O)N[C@@H](Cc1ccc(O)cc1)C(=O)N[C@@H](CC(C)C)C(=O)N[C@@H](CC(C)C)C(=O)N[C@@H](CCC(=O)O)C(=O)NCC(=O)NCC(=O)N1CCC[C@H]1C(=O)N[C@@H](CO)C(=O)N[C@@H](CO)C(=O)NCC(=O)N[C@@H](C)C(=O)N1CCC[C@H]1C(=O)N1CCC[C@H]1C(=O)N1CCC[C@H]1C(=O)N[C@@H](CO)C(N)=O [retatrutide]
- EC50 [1]: 0.00417 nM
- Emax ± S.E.M. (% WT) [1]: 99.67 ± 4.00 % WT
- decrease of retatrutide potency by mutation ([2]; relative to WT): 107.7 fold
- Emax ± S.E.M. (% WT) ([2]; HEK-293T, 40 min, TR-FRET, mean ± S.E.M., n at least 3): 92.16 ± 5.36 % WT
- EC50 ([2]; HEK-293T, 40 min, TR-FRET, mean ± S.E.M., n at least 3, ****P < 0.0001): 0.245 nM
- decrease of cAMP signaling potency by mutation ([3]; GIPR E7.42bA (E377A), relative to WT): 71.6 fold
- Emax ± S.E.M. (% WT) ([3]; GIPR E377(7.42b)A, HEK-293T, 40 min, TR-FRET, mean ± S.E.M., n at least 3): 99.83 ± 6.38 % WT
- EC50 ([3]; GIPR E377(7.42b)A, HEK-293T, 40 min, TR-FRET, mean ± S.E.M., n at least 3, ****P < 0.0001): 0.166 nM
- ED50, body weight reduction [4, 6]: 4.73 nmol/kg
- body weight and calorie intake [4, 6]: dose-dependently reduced
- body weight loss compared with tirzepatide ([4]; obese mice, due to an increased energy expenditure through GCGR activation): greater body weight losses in obese mice than tirzepatide
- body weight reduction ([5]; 3 mg group, ref Urva S et al (supplement ref 18)): –4.71 kg
- decrease in body weight (up to) ([5]; 4.5 mg): –2.93 kg
- decrease in body weight (up to) ([5]; 6 mg): –3.52 kg
- body weight reduction ([5]; 3/6 mg group, ref Urva S et al (supplement ref 18)): –7.83 kg
- fasting and postprandial plasma glucose and HbA1c ([5]; compared to placebo, ref Urva S et al (supplement ref 18)): clinically decreases
- severity of most treatment-related adverse events ([5]; human, in vivo): mild
- glycemic control ([5]; ref Urva S et al (supplement ref 18)): showed glycemic control efficacy
